Reference: PubChem BioAssay AID1963970 (Molecular Pharmacology Branch, DTP, NCI, 2024)
Several values for one entry are separate records, joined by “and”; a condition that tells them apart may be missing. Equal entries are not always repeated. Blank lines part the entries; values can stand above or below the compound they belong to.

Test system: 931267-113-T-J1-PDC multicell spheroid viability
Assay: Anticancer human tumor 931267-113-T-J1-PDC patient-derived colon adenocarcinoma cell line growth inhibition [PI3K]
Conditions: for viability, T/C: stronger effect = lower value
From the text: Combinatorial screen of targeted agents with the PI3K inhibitors inavolisib, alpelisib, duvelisib, and copanlisib in multi-cell type tumor spheroids
A high-throughput screen of multi-cell type tumor spheroids was designed to identify active combinations of targeted small molecules and PI3K pathway inhibitors. Complex spheroids include a stromal component modeled by human endothelial cells (HUVEC) and fibroblasts modeled by human mesenchymal stem cells (MSCs). The concentration ranges selected for each drug and investigational agent were based upon clinically achievable concentrations if the clinical Cmax of the agent was known.
Compounds. The drugs and investigational agents: inavolisib (NSC800729), alpelisib (NSC765974), duvelisib (NSC772469), copanlisib (NSC816437), ipatasertib (NSC767898), afuresertib (NSC778305), talazoparib (NSC767125), sapanisertib (NSC764658), selumetinib (NSC741078), tovorafenib (DAY101, NSC766906), vemurafenib (NSC761431), ravoxertinib (NSC781343), sotorasib (NSC818433), MRTX1133 (NSC 836407), abemaciclib (NSC 768073), palbociclib (NSC758247), venetoclax (NSC 766270), SY5609 (NSC837396), enzalutamide (NSC755605), and darolutamide (NSC825331), were obtained from the National Cancer Institute (NCI) Developmental Therapeutics Program Chemical Repository. The FDA-approved anticancer drug set is available from the NCI Developmental Therapeutics Program. […] The stock solutions were prepared in dimethyl sulfoxide (DMSO, Sigma-Aldrich, St. Louis, MO, cat. D2650) at 800-fold the tested concentration and stored at -70 degrees C prior to their use. All drugs and investigational agents were tested over a range starting from a high concentration at or near the clinical Cmax and decreasing in half-log increments. If the clinical Cmax for an agent had not been determined, the highest concentration tested was 10 microM.
Cell Culture. All cells were maintained in an incubator at 37 degrees C and 5% CO2 with 95% humidity. The PDC lines were cultured according to standard operating procedures established by the NCI PDMR (https://pdmr.cancer.gov/sops/default.htm). All PDCs were thawed and cultured in Matrigel-coated flasks prepared with a working solution of 1X Ham's F-12 nutrient mix, without supplementation (Invitrogen, Waltham, MA, cat. 11765054), 100 U/mL penicillin-streptomycin (Invitrogen, cat. 15140122), and 2.5% Matrigel (Corning Inc., Corning, NY, cat. 354248) for the first three passages. The 354836-022-R-J1-PDC, 475296-252-R-J1-PDC, and 997726-040-R-J2-PDC lines were cultured in 6A media, which includes advanced DMEM/F-12 (Thermo Fisher Scientific, cat. 12634028), 10 mM HEPES (Thermo Fisher Scientific, cat. 15630080), 1X GlutaMAX supplement (Thermo Fisher Scientific, cat. 35050061), 0.1 mg/mL primocin (InvivoGen, San Diego, CA, cat. ant-pm-2), 10% defined fetal bovine serum, heat inactivated (HyClone Laboratories Inc., Logan, UT, cat. SH30070.03HI), 50% L-WRN conditioned media (ATCC, cat. CRL-3276), 1.25 mM N-Acetyl-L-cysteine (Sigma-Aldrich, cat. A9165), 10 mM nicotinamide (Sigma-Aldrich, cat. N0636), 1X B-27 supplement (Thermo Fisher Scientific, cat. 17504044), 1X N-2 supplement (Thermo Fisher Scientific, cat. 17502048), and 10 microM Y-27632 dihydrochloride (Tocris Bioscience, Bristol, United Kingdom, cat. 1254). The 624824-186-R-J2-PDC line was cultured in 6C/Colon 1B media, which includes all 6A media components plus 50 ng/mL human EGF recombinant protein (Thermo Fisher Scientific, cat. PHG0311). […]

[1] = curve of first compound, second compound 0.0316 µM
[2] = curve of first compound, second compound 0.1 µM
[3] = curve of first compound, second compound 0.316 µM
[4] = curve of first compound, second compound 1 µM
[5] = second compound 0.0316 µM, first compound 0.000316 µM
[6] = second compound 0.0316 µM, first compound 0.001 µM
[7] = second compound 0.0316 µM, first compound 0.00316 µM
[8] = second compound 0.0316 µM, first compound 0.01 µM
[9] = second compound 0.0316 µM, first compound 0.0316 µM
[10] = second compound 0.0316 µM, first compound 0.1 µM
[11] = second compound 0.1 µM, first compound 0.000316 µM
[12] = second compound 0.1 µM, first compound 0.001 µM
[13] = second compound 0.1 µM, first compound 0.00316 µM
[14] = second compound 0.1 µM, first compound 0.01 µM
[15] = second compound 0.1 µM, first compound 0.0316 µM
[16] = second compound 0.1 µM, first compound 0.1 µM
[17] = second compound 0.316 µM, first compound 0.000316 µM
[18] = second compound 0.316 µM, first compound 0.001 µM
[19] = second compound 0.316 µM, first compound 0.00316 µM
[20] = second compound 0.316 µM, first compound 0.01 µM
[21] = second compound 0.316 µM, first compound 0.0316 µM
[22] = second compound 0.316 µM, first compound 0.1 µM
[23] = second compound 1 µM, first compound 0.000316 µM
[24] = second compound 1 µM, first compound 0.001 µM
[25] = second compound 1 µM, first compound 0.00316 µM
[26] = second compound 1 µM, first compound 0.01 µM
[27] = second compound 1 µM, first compound 0.0316 µM
[28] = second compound 1 µM, first compound 0.1 µM
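Also: viability read 7 days after compound addition.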

IC50 (curve of first compound, second compound 0.00316 µM): 93.1 nM
IC50 (curve of first compound, second compound 0.01 µM): 91.6 nM
IC50 [1]: 68.5 nM
IC50 [2]: 31.2 nM
IC50 [3]: 1.49 nM
IC50 [4]: < 0.316 nM
Compound: CC(C)n1nc(-c2ccc3oc(N)nc3c2)c2c(N)ncnc21 + COc1c(OCCCN2CCOCC2)ccc2c3n(c(=NC(=O)c4cnc(N)nc4)nc12)CCN3
viability, T/C (second compound 0.00316 µM, first compound 0.000316 µM): 90.4%
viability, T/C (second compound 0.00316 µM, first compound 0.001 µM): 97.9%
viability, T/C (second compound 0.00316 µM, first compound 0.00316 µM): 94.1%
viability, T/C (second compound 0.00316 µM, first compound 0.01 µM): 96%
viability, T/C (second compound 0.00316 µM, first compound 0.0316 µM): 88.6%
viability, T/C (second compound 0.00316 µM, first compound 0.1 µM): 47.3%
viability, T/C (second compound 0.01 µM, first compound 0.000316 µM): 96.2%
viability, T/C (second compound 0.01 µM, first compound 0.001 µM): 90.2%
viability, T/C (second compound 0.01 µM, first compound 0.00316 µM): 88.1%
viability, T/C (second compound 0.01 µM, first compound 0.01 µM): 82.3%
viability, T/C (second compound 0.01 µM, first compound 0.0316 µM): 75.4%
viability, T/C (second compound 0.01 µM, first compound 0.1 µM): 47.2%
viability, T/C [5]: 90.5%
viability, T/C [6]: 82.1%
viability, T/C [7]: 80.5%
viability, T/C [8]: 72.4%
viability, T/C [9]: 60.3%
viability, T/C [10]: 44.6%
viability, T/C [11]: 76.5%
viability, T/C [12]: 66%
viability, T/C [13]: 64.4%
viability, T/C [14]: 60.9%
viability, T/C [15]: 51.8%
viability, T/C [16]: 34.5%
viability, T/C [17]: 55.5%
viability, T/C [18]: 50.8%
viability, T/C [19]: 46.3%
viability, T/C [20]: 43.1%
viability, T/C [21]: 36%
viability, T/C [22]: 29%
viability, T/C [23]: 37.1%
viability, T/C [24]: 35.8%
viability, T/C [25]: 35.3%
viability, T/C [26]: 32.1%
viability, T/C [27]: 27.5%
viability, T/C [28]: 22.2%

IC50 [1]: > 100 nM
IC50 [2]: > 100 nM
IC50 [3]: > 100 nM
IC50 [4]: > 100 nM
IC50 (curve of first compound, second compound 3.16 µM): > 100 nM
IC50 (curve of first compound, second compound 10 µM): > 100 nM
Compound: CC(C)n1nc(-c2ccc3oc(N)nc3c2)c2c(N)ncnc21 + CC(Nc1ncnc2nc[nH]c12)c1cc2cccc(Cl)c2c(=O)n1-c1ccccc1
viability, T/C [5]: 101%
viability, T/C [6]: 103%
viability, T/C [7]: 97.8%
viability, T/C [8]: 88.7%
viability, T/C [9]: 92.6%
viability, T/C [10]: 51.7%
viability, T/C [11]: 106%
viability, T/C [12]: 104%
viability, T/C [13]: 92.7%
viability, T/C [14]: 89.5%
viability, T/C [15]: 79.8%
viability, T/C [16]: 55.8%
viability, T/C [17]: 113%
viability, T/C [18]: 105%
viability, T/C [19]: 93%
viability, T/C [20]: 94.2%
viability, T/C [21]: 86.5%
viability, T/C [22]: 54.1%
viability, T/C [23]: 95.6%
viability, T/C [24]: 98%
viability, T/C [25]: 91%
viability, T/C [26]: 92.2%
viability, T/C [27]: 87.5%
viability, T/C [28]: 57%
viability, T/C (second compound 3.16 µM, first compound 0.000316 µM): 93.8%
viability, T/C (second compound 3.16 µM, first compound 0.001 µM): 95%
viability, T/C (second compound 3.16 µM, first compound 0.00316 µM): 88.4%
viability, T/C (second compound 3.16 µM, first compound 0.01 µM): 88.8%
viability, T/C (second compound 3.16 µM, first compound 0.0316 µM): 81.8%
viability, T/C (second compound 3.16 µM, first compound 0.1 µM): 52.5%
viability, T/C (second compound 10 µM, first compound 0.000316 µM): 87.5%
viability, T/C (second compound 10 µM, first compound 0.001 µM): 83.9%
viability, T/C (second compound 10 µM, first compound 0.00316 µM): 91.6%
viability, T/C (second compound 10 µM, first compound 0.01 µM): 84.3%
viability, T/C (second compound 10 µM, first compound 0.0316 µM): 74.8%
viability, T/C (second compound 10 µM, first compound 0.1 µM): 58.9%

IC50 (curve of compound): 670 nM [middle of 4 runs]
Compound: C#Cc1c(F)ccc2cc(O)cc(-c3ncc4c(N5CC6CCC(C5)N6)nc(OCC56CCCN5CC(F)C6)nc4c3F)c12 (stereo unspecified)
viability, T/C (compound 0.0316 µM): 85% [middle of 4 runs]
viability, T/C (compound 0.1 µM): 71.4% [middle of 4 runs]
viability, T/C (compound 0.316 µM): 58.2% [middle of 4 runs]
viability, T/C (compound 1 µM): 44.2% [middle of 4 runs]
viability, T/C (compound 3.16 µM): 36.2% [middle of 4 runs]
viability, T/C (compound 10 µM): 24% and 25.4% and 23.7% (2×)
